# Values quoted from earlier work in article PMC10046020, “In Silico Screening and Optimization of Cell-Penetrating Peptides Using Deep Learning Methods” (Biomolecules, 2023).
# Conditions: Spreadsheet S1: 150 CPP and 150 non-CPP peptides collected from CellPPD, MLCPP, CPPsite 2.0, Lifetein and other publications; cited from earlier work
# Text: Supplement biomolecules-13-00522-s001.zip/biomolecules-2162660_Supplementary Spreadsheets S1 Test Set.csv, table | column: class || Supplement biomolecules-13-00522-s001.zip/biomolecules-2162660_Supplementary Spreadsheets S2 Train Set.csv, table | column: class
row,Substance,"class (CPP / Non-CPP), Test Set"
1,KLALKALKAALKPA,Non-CPP
2,KLALKLACKALKAA,Non-CPP
3,KLDFLGEGQFATVYKARDKNT,Non-CPP
4,KLFNGNEVCLDPKEKWVQKVVQIFLK,Non-CPP
5,KMTRAQRRAAARRNRWTAR,CPP
6,KNLRRIIRKGIHIIKKYF,CPP
7,KRKKKGKGLGKKRDPCLRKYK,CPP
8,KWRRKLKKLRPKKKRKV,CPP
9,LALALALALALALAKLAKLAKLAKLAKIKKIKKKIK,CPP
10,LAQLLAQLLAQLGGGGRRRRRRRRR,CPP
11,LELELELELELELELELELE,CPP
12,LILIGRRRRRRRRGC,CPP
13,LIRLWSHLIHIWFQNRRLKWKKKC,CPP
14,LKKLAELAHKLLKLG,CPP
15,LKKLLKLLKKLLKLAG,CPP
16,LLATTALLKTTALLKTTA,Non-CPP
17,LLGDFFRKSKEKIGKEFKRIVQRIKDFLRNLVPRTES,CPP
18,LLGKGNLKALAALAKKIL,Non-CPP
19,LLIILRRPIRKQAHAHSK,CPP
20,LLKHTALLKTTALLKTTA,Non-CPP
21,LLKTTALLKTTALHKTTA,Non-CPP
22,LLKTTELLKTTELLKTTS,Non-CPP
23,LMLRTVGYKFHCSLPVNAVHCSLK,Non-CPP
24,LNSAGYLLGKPKALAALAK,Non-CPP

row,Substance,"class (CPP / Non-CPP), Test Set"
1,LNSLGYLLGKALAALAKKIL,Non-CPP
2,LRHHLRHLLRHLRHLLRHLRHHLRHLLRH,CPP
3,LSNTLAELYVREHLR,Non-CPP
4,LVVLGKLYGRKKRRQRRR,CPP
5,MAPTKRKGSCPGAAPNKKP,CPP
6,MDMVAIDDQDYIMCHF,Non-CPP
7,MIRIAALNASSTIEDDHEGSFKSHKIQTKEAQEAE,Non-CPP
8,MLPRLICINDYEQHAKSVLPKSIYDYYRSGANDEE,Non-CPP
9,MNASQVAGEEAPQSGHSVKVVLVGDGGCGKTSLMMVF,Non-CPP
10,MPVMFYFSARNEVALVLVYFNFMIMMMH,Non-CPP
11,NAATATRGRSAASRPTQRPRAPARSASRPRRPVQ,CPP
12,NAGGWFSSWFFSNTANEDQDDMLPSTSAAAGETNYARN,Non-CPP
13,NAKTRRHERRRKLAIER,CPP
14,NSDMAHERKFMWQYNR,Non-CPP
15,NWVTMKDSADSIDHECPRYFDTCERSCKISE,Non-CPP
16,PDEIGGKFPTAYVQDYLINPE,Non-CPP
17,PKKGSKKAVTKAQKKDGA,CPP
18,PKKKRKVRRRRRRRPQMQQNVFQYPGAGMVPQGEANF,CPP
19,PLGPVVHKCCPGFGGLQWLPLLWNWYQNMWGN,Non-CPP
20,PPPPPPPPPPPLRR,CPP
21,PVVHLTLRQAGDDFGR,Non-CPP
22,PVVHLTLRQAGDDFSR,Non-CPP
23,PVVHLTLRQEGDDFSR,Non-CPP
24,QAHVHVWHKYSVKTVYH,Non-CPP

row,Substance,"class (CPP / Non-CPP), Test Set"
1,QKVAFCDCCYDDIYTVEFKGCIFRPK,Non-CPP
2,QQPFVQQQQPFVQQ,Non-CPP
3,QSGAKPGHCEWQSTHLKNCEKVNDIRQPPHHQRS,Non-CPP
4,QWGYGGMPYGGYGGMGGYGMGGYGMGY,Non-CPP
5,RARRNRRARILFQYRARNRARN,CPP
6,RFTFHFRFEFTFHFE,CPP
7,RGGRLCYCRRRFCVCVGR,CPP
8,RHHLRHLRRHLRHLLRHLRHHLRHLRRHLRHLL,CPP
9,RKGWFKAMKSIAKFIAKEKLKEHL,CPP
10,RKKRRQRRRGKKKKKKKKKKKKKKKGRKKRRQRRR,CPP
11,RLHRRLHRRLHRLHRRLHRLHRRLHRRLH,CPP
12,RLRLRLRLRLRLRLRLKLLKLLKLLKLLKKKKKKKGYK,CPP
13,RPEGQNYTEGIAVVF,Non-CPP
14,RPKRPTTLNLFPQVPRSQDT,CPP
15,RQIKIWFQNRRMKWKKC,CPP
16,RQIKIWFQNRRMKWKKGG,CPP
17,RRLRHLRHHYRRRWHRFR,CPP
18,RRLTLRQLLGLGSRRRRRSR,CPP
19,RRRRRRRRRETWWETWWTEW,CPP
20,RRRRRRRRRRWWWWWW,CPP
21,SDPSVPLRPEEDELIDQ,Non-CPP
22,SHMMGEFWGDEDMCYRHQRSYET,Non-CPP

# Same assay, conditions: Spreadsheet S2: peptides collected from CellPPD, MLCPP, CPPsite 2.0, Lifetein and other publications; cited from earlier work
row,Substance,"class (CPP / Non-CPP), Train Set"
1,RRRRRRRGGIYLATALAKWALKQ,CPP
2,RRRRRRRGGIYLATALAKWALKQGF,CPP
3,RRRRRRRGGKLAKLAKKLAKLAK,CPP

# Same assay, conditions: cited from earlier work
row,Substance,"class (CPP / Non-CPP), Test Set"
1,KNNLKECGLY,CPP
2,KRKRWHW,CPP
3,LIKRKRLI,Non-CPP
4,LRKLRKRLLR,CPP
5,MEPLWWANYDNTQ,Non-CPP
6,MIEMAM,Non-CPP
7,MVMEMRNF,Non-CPP
8,NTCTWLKY,CPP
9,NTCTWLKYHS,CPP
10,NTGTWLKYHS,CPP
11,NYQRRCKNQN,CPP
12,NYQWRCKNQN,CPP
13,NYRWRCK,CPP
14,NYRWRCKN,CPP
15,NYRWRCKNQ,CPP
16,PLDGMCDKGNYTQ,Non-CPP
17,QEHDYGNLDLCN,Non-CPP
18,QGARNYKCCFAWC,Non-CPP
19,QIFWDSRHPSQH,Non-CPP

row,Substance,"class (CPP / Non-CPP), Test Set"
1,QIMISA,Non-CPP
2,QNLGNDWAVGHLM,Non-CPP
3,QNLGNQWAVGHLM,Non-CPP
4,REDEDEIEW,CPP
5,RFVHNC,Non-CPP
6,RHVYHVLLSQ,CPP
7,RKKAAA,CPP
8,RKKNPNCRR,CPP
9,RLLRLLRLL,CPP
10,RRLLRRLRR,CPP
11,RRRRRHHH,CPP
12,RRRRRRRHHH,CPP
13,RRRRRRRRC,CPP
14,RRRRRRRRGC,CPP
15,RRRRRRRRK,CPP
16,RRRRRRRRRR,CPP
17,RRRRRRWWW,CPP
18,RRRRWWWW,CPP
19,SARRRRRREW,CPP
